Like-named read-outs stand apart in the source and are kept apart here.
Assays:
[1] = rat, in vivo, po
From the text: (§1) For the pharmacokinetic (PK) study, three groups (n = 6 each) of rats were orally administered RPM extract (6, 18, and 36 g/kg). In the plasma pharmacokinetics experiment, doses were 6, 18, and 36 g/kg for the single administration group and 18 g/kg for the continuous administration group. The doses were set at a subtoxic level ([Zhang et al., 2013]; [Wang et al., 2015]) to investigate the pharmacokinetic profiles of the constituents of RPM (36 g/kg group) and were approximately 60 times the upper dose (6 g/day) for humans recommended by the 2020 edition of Chinese Pharmacopoeia ([Chinese Pharmacopoeia Commission, 2020]), which was converted to a dose for rats based on body surface area conversion ([Reagan-Shaw et al., 2008]). In addition, the low and medium doses decreased in a certain proportion. Serial blood samples (∼120 μL; before dosing and at 5, 15, and 30 min, and 1, 2, 4, 6, 8, 12, and 24 h after administration) were collected in heparinized tubes from the orbital sinus under light isoflurane. The blood samples were centrifuged at 12000 g for 2 min, and the plasma fractions were decanted and frozen at −70°C until analysis.
(§2) Samples were prepared using the protein precipitation process. Rat plasma (50 μL) spiked with 10 μL of IS (puerarin 100 ng/ml) was extracted with 150 μL acetonitrile. After vortex shaking for 5 min and centrifugation at 14,000 g for 5 min, 150 μL of the organic layer was transferred to a clean tube and evaporated to dryness at 25°C under a stream of nitrogen. The residue was reconstituted in 50 μL of the initial mobile phase and subjected to another round of centrifugation at 14,000 g for 5 min, and 5 μL of the supernatant was injected for LC–MS/MS analysis.
(§3) The analysis was performed on an AB Sciex API 5500 Q Trap mass spectrometer (Toronto, Canada), interfaced with a Waters Acquity UPLC separation module.
(§4) The pharmacokinetic parameters, including the area under the plasma concentration-time curve from time zero to time t (AUC0-t) to time infinity (AUC0-∞), the time to reach the maximum plasma concentration (T max), the elimination half-time (t 1/2), and the maximum plasma concentration (C max), were calculated using the pharmacokinetic software Phoenix® WinNonlin®, version 7.0 (Scientific Consulting Inc., Apex, NC, United States). Data are expressed as the mean ± standard deviation (SD) for each group. The dose-exposure relationship was evaluated by the power function model combined with the confidence interval method ([Smith et al., 2000]; [Sethuraman et al., 2007]; [Hummel et al., 2009]). First, the administration dose, AUC0-∞ and C max were logarithmically transformed, and then a linear regression was performed to obtain the curve correlation coefficient (R^2), slope and 90% confidence interval (90% CI).

[2] = in vivo; conditions: Sprague-Dawley, rat, po
From the text: as §1, §2, §3, §4

[3] = rat, in vivo
Method: as §4

[4] = rat, in vivo, po, 36 g/kg; cited from earlier work
[5] = in vivo; conditions: Sprague-Dawley, rat, po, 18 g/kg
Method: For the tissue distribution study, 18 rats were randomly divided into three groups (n = 6, each) and orally administered 18 g/kg RPM extract. The rats under isoflurane anesthesia were sacrificed by bleeding from the abdominal aorta at 5, 15, and 60 min (six rats per time point) after gavage with 18 g/kg RPM extract. Subsequently, the heart, liver, spleen, lung, kidney, brain, stomach, small intestine, bladder, and gonads (testes of male rats, and uterus and ovaries of female rats) were immediately collected. An accurately weighed amount of fresh tissue sample (0.25 g) was individually homogenized with normal saline (1 ml) and transferred (50 μL) as a tissue homogenate to 1.5 ml centrifuge tubes for use as the tissue samples. All tissue samples were stored at −70°C until analysis.
Samples were prepared using the protein precipitation process. […] The tissue samples were homogenized in four parts of ice-cold 0.9% saline solution and then centrifuged at 4°C and 12,000 × g for 10 min to obtain tissue homogenates. […] Tissue homogenate, urine, bile and fecal samples were subjected to a similar process as the rat plasma samples.
For the tissue distribution study, 18 rats were randomly divided into three groups (n=6, each), and orally administered with 18 g/kg RPM extract. The rats were sacrificed at 5, 15, 60 min after orally administering RPM. Subsequently, the heart, liver, spleen, lung, kidney, brain, stomach, small intestine, bladder, gonad (testes of male rats, uterus and ovaries of female rats) were immediately collected. An accurately weighed amount of fresh tissue sample (0.25 g) was individually homogenized with normal saline (1 mL) and transferred (50 μL) as a tissue homogenate to 1.5 mL centrifuge tubes for use as the tissue samples.

time at which C max was exhibited [1]: ≤ 20 min | AUC(0-inf) ([2]; 6 g/kg): 0.0961 ± 0.0171 µM·h | AUC(0-t) ([2]; 6 g/kg): 0.0872 ± 0.0215 µM·h | Cmax ([2]; 6 g/kg): 41.2 ± 8.8 nM | MRT inf ([2]; 6 g/kg): 6.87 ± 1.42 h | Tmax ([2]; 6 g/kg): 0.25 h | half-life ([2]; 6 g/kg): 5.07 ± 1.32 h | AUC(0-inf) ([2]; 18 g/kg): 0.558 ± 0.499 µM·h | AUC(0-t) ([2]; 18 g/kg): 0.416 ± 0.251 µM·h | Cmax ([2]; 18 g/kg): 349 ± 216 nM | MRT inf ([2]; 18 g/kg): 5.69 ± 1.57 h | half-life ([2]; 18 g/kg): 3.78 ± 0.75 h | Conclusion (dose-exposure relationship) [3]: Uncertainty of linear relationship | AUC(0-t) ([5]; both, AUC0-t in bladder): 0.0604 µM·h | AUC(0-t) ([5]; both, AUC0-t in brain): 0.00583 µM·h | AUC(0-t) ([5]; both, AUC0-t in heart): 0.65 µM·h | AUC(0-t) ([5]; both, AUC0-t in intestine): 0.211 µM·h | AUC(0-t) ([5]; both, AUC0-t in kidney): 0.587 µM·h | AUC(0-t) ([5]; both, AUC0-t in liver): 1.6 µM·h | AUC(0-t) ([5]; both, AUC0-t in lung): 0.58 µM·h | AUC(0-t) ([5]; both, AUC0-t in spleen): 0.873 µM·h | AUC(0-t) ([5]; both, AUC0-t in stomach): 0.783 µM·h | AUC(0-t) ([5]; female, AUC0-t in ovary): 0.227 µM·h | AUC(0-t) ([5]; female, AUC0-t in uterus): 0.104 µM·h | AUC(0-t) ([5]; male, AUC0-t in testis): 0.0137 µM·h
Structure (SMILES): O=C1c2cc(O)cc(O)c2C(=O)c2c(O)cc(CO)cc21 [Citreorosein]
AUC0-∞ [4]: 0.468 ± 0.337 µM·h | AUC(0-t) [4]: 0.458 ± 0.338 µM·h | Cmax [4]: 521 ± 512 nM

Reference: article PMC8899820, “Pharmacokinetics, Tissue Distribution, and Excretion Characteristics of a Radix Polygoni Multiflori Extract in Rats” (Frontiers in Pharmacology, 2022)
